This is an account of results in ChEMBL document CHEMBL5500427, “Discovery of New Phenyltetrazolium Derivatives as Ferroptosis Inhibitors for Treating Ischemic Stroke: An Example Development from Free Radical Scavengers” (J Med Chem, 2024).

Data set [1] relates to HT-1080. Briefly: Anti-ferroptotic activity against Erastin-induced human HT-1080 cells assessed as inhibition of ferroptosis incubated for 72 hrs by CCK-8 assay. Type of data set: functional, cell-based. (Formazan colour is commonly taken as a measure of viable cells.)
Data set [2] can be described thus: Antioxidant activity assessed as DPPH radical scavenging activity at 0.4 uM incubated for 30 mins by Beckman Coulter analysis relative to control. It counts as functional. (In general: DPPH is a stable violet radical that fades when it is reduced.)
A further data set has as its system Hippocampus. Briefly: Anti-ferroptotic activity against glutamate-induced rat Hippocampus assessed as inhibition of ferroptosis. Type of data set: functional, tissue-based.
Data set [3] concerns HT-1080. The data set is described as follows: Anti-ferroptotic activity against Erastin-induced ferroptosis in human HT-1080 cells assessed as inhibition of lipid ROS production at 10 uM incubated for 24 hrs by C11-BODIPY 581/591 based flow cytometry relative to control. To be noted: HT-1080, 24 h, values are per cent of control. It counts as functional. Background: A flow cytometer gives signals particle by particle.

Data set [4] concerns N2a. Briefly: Cytoprotective activity against oxygen-glucose deprivation/reoxygenation induced cell injury in mouse N2a cells assessed as upregulation of GPX4 expression at 1 uM incubated for 2 hrs under hypoxia condition and measured after 24 hrs by Western blotting analysis. To be noted: time 26.0 hrs. Type of data set: functional, cell-based.
For the next data set, the system named is Mus musculus. Briefly: Neuroprotective activity against transient middle cerebral artery occlusion induced ischemia stroke female SPF C57 mouse model assessed as reduction in cerebral infarct volume at 5 mg/kg,iv measured after 24 hrs by TTC staining based analysis relative to control. It counts as functional. Also noted: scale not given: the % may be the effect or the level left.

A short description of data set [5]: Apparent permeability of compound at 10 uM incubated for 16 hrs by PAMPA based LC-MS/MS analysis. Type of data set: ADME.
Data set [6] relates to N2a. The data set is described as follows: Cytoprotective activity against oxygen-glucose deprivation/reoxygenation induced cell injury in mouse N2a cells assessed as upregulation of SLC7A11 expression at 1 uM incubated for 2 hrs under hypoxia condition and measured after 24 hrs by Western blotting analysis. To be noted: time 26.0 hrs. Type of data set: functional, cell-based.

Data set [7] relates to HT-1080. The data set is described as follows: Anti-ferroptotic activity against Erastin-induced ferroptosis in human HT-1080 cells assessed as inhibition of lipid peroxidation production at 10 uM incubated for 24 hrs by C11-BODIPY 581/591 based flow cytometry relative to control. It counts as functional. To be noted: HT-1080, 24 h, values are per cent of control.
For the next data set, the system named is MEF. Briefly: Anti-ferroptotic activity against tamoxifen induced Gpx4 knockout mouse MEF cells assessed as inhibition of ferroptosis incubated for 72 hrs by AquaBluerTM assay. It counts as functional, cell-based.
[8] abbreviates: Homo sapiens, HT-1080, 72 h, read-out: IC50.

Calls of active or inactive are those of the source. No cut-off for these calls is given here.

A word on the IC50: it is the concentration needed to halve the response being measured. Consider `Cn1nnc(-c2ccc(Nc3cccnc3)c(NC3CCCCC3)c2)n1`, for which the IC50 in the data set with HT-1080 [1] (setting [8]) is 186 nM.
As for `Cn1nnc(-c2ccc(NC3CCCCC3)cn2)n1`, in the data set with HT-1080 [1] (setting [8]), the IC50 was more than 1000 nM.
What is called Papp is a coefficient for how fast a substance crosses the barrier. Consider `CCOC(=O)c1ccc(NC2CCCCC2)c(N)c1`, for which the inhibition entry in data set [2] was “inactive”. Moreover, the IC50 came out at 60 nM with HT-1080 [1] (setting [8]) and 90 nM in the data set with Hippocampus. Moreover, the response, % of control at 10 µM was found to be 2.29% in the data set on HT-1080 [3] and 0.58% in the data set on HT-1080 [7]. For the same compound, the outcome with N2a [4] and in the data set on N2a [6] was Active. Besides, the Activity in the data set with Mus musculus was 9.98%. The Papp at 16 h, 10 µM in data set [5] was 6.76 ×10⁻⁶ cm/s.
Take `Cc1c(-c2nnn(C)n2)ccc(NC2CCCCC2)c1N`: the 50% inhibitory concentration (IC50) with HT-1080 [1] (setting [8]) was 44 nM.
`Cc1cc(NC2CCCCC2)c(N)cc1-c1nnn(C)n1`: the IC50 in the data set with HT-1080 [1] (setting [8]) was 71 nM.
In the case of `Cn1nnc(-c2ccc(NC3CCCCC3)cc2N)n1`, the IC50 in the data set with HT-1080 [1] (setting [8]) was more than 1000 nM.
With `Clc1cccc(CNC2=Nc3ccccc3NC23CCNCC3)c1`, the IC50 in the data set with MEF is 22 nM.
On to `Oc1cc(O)cc(/C=C/c2ccc(O)cc2O)c1` [OXYRESVERATROL], for which the IC50 entry in the data set on HT-1080 [1] (ht-1080) is “Not Active”.
In the case of `Cn1nnc(-c2ccc(NC3CCCCC3)c(NCc3ccccc3)c2)n1`, the IC50 in the data set with HT-1080 [1] (setting [8]) is more than 1000 nM.
Turning to `Cn1nnc(-c2ccc(NC3CCCCC3)cc2C(F)(F)F)n1`, the IC50 in the data set on HT-1080 [1] (setting [8]) is more than 1000 nM.
`Cn1nnc(-c2ccc(NC3CCCCC3)c(NCc3ccncc3)c2)n1`: in the data set with HT-1080 [1] (setting [8]), the IC50 was more than 1000 nM.
The same measure, in the same setting: in the case of `Cn1nnc(-c2cc(N)c(NC3CCCCC3)cc2Cl)n1` it was 17 nM; in that of `Cc1cc(NC2CCCCC2)ccc1-c1nnn(C)n1`, 990 nM; in that of `O=C1C[C@@H](c2ccc(O)c(O)c2)Oc2cc(O[C@@H]3O[C@H](CO)[C@@H](O)[C@H](O)[C@H]3O)cc(O)c21`, 10000 nM.
Turning to `FC(F)(F)Cn1nnc(-c2ccc(NC3CCCCC3)cc2)n1`, the IC50 in the data set on HT-1080 [1] (setting [8]) is more than 10000 nM.
As to `Cn1nnc(-c2ccc(NC3CCCCC3)cc2)n1`, in the data set with HT-1080 [1] (setting [8]), the IC50 was 122 nM. Further, the response, % of control at 10 µM in the data set on HT-1080 [7] amounted to 5.96%.
In the case of `N#CCn1nnc(-c2ccc(NC3CCCCC3)cc2)n1`, the IC50 with HT-1080 [1] (setting [8]) was found to be 8120 nM.
On to `COc1cc(NC2CCCCC2)c(N)cc1-c1nnn(C)n1`, for which the IC50 with HT-1080 [1] (setting [8]) stood at 801 nM.
As for `Cn1nnc(-c2ccc(NC3CCCCC3)cc2F)n1`, in the data set on HT-1080 [1] (setting [8]), the IC50 is more than 1000 nM.
